Paper doi:10.1101/2023.07.01.547314v1 (biorxiv, 2023)
Changes are numbered by the printed parent chain.

Columns and labels:
A2BR [1] = target: T1, A2BR (Homo sapiens, UniProt P29275, Y10F); assay: GloSensor cAMP assay, HEK293; format: cell-based
T1 sequence (P29275 1-332 Y10F): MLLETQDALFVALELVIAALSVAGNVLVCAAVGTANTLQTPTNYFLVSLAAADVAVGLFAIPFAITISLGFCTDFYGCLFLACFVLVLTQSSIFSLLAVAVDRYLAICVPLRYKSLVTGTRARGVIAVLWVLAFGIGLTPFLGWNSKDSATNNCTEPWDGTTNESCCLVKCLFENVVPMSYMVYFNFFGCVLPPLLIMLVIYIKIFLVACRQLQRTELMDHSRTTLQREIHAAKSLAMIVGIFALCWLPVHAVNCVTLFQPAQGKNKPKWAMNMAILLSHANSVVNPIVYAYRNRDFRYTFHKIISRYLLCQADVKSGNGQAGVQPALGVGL

A2BR [2] = target: T2, A2BR (Homo sapiens, UniProt P29275); assay: GloSensor cAMP assay, HEK293; format: cell-based
T2 sequence (P29275 1-332): T1 sequence (P29275 1-332 Y10F) with F10Y

A2BR [3] = target: T3, A2BR (Homo sapiens, UniProt P29275, N273Y); assay: GloSensor cAMP assay, HEK293; format: cell-based
T3 sequence (P29275 1-332 N273Y): T1 sequence (P29275 1-332 Y10F) with F10Y, N273Y

A2AR [4] = target: A2AR (Homo sapiens, UniProt P29274, Y271N); assay: cell-based
A2AR [5] = target: A2AR (Homo sapiens, UniProt P29274); assay: cell-based
A2AR [6] = target: A2AR (Homo sapiens, UniProt P29274, Y9F); assay: cell-based
Chain of A2AR (Homo sapiens, UniProt P29274, Y9F) (P29274 whole entry Y9F): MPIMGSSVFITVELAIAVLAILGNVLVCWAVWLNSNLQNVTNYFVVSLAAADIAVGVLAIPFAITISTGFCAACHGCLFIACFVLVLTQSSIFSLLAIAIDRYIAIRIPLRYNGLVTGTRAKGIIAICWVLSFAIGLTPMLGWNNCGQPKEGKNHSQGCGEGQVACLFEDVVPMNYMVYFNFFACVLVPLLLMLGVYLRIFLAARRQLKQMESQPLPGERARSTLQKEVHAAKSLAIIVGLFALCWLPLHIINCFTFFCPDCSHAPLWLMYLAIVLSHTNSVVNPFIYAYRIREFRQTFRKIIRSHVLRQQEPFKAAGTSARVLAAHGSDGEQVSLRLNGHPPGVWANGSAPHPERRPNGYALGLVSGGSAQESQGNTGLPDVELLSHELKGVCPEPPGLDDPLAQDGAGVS

Chain of A2AR (Homo sapiens, UniProt P29274) (P29274 whole entry): as the sequence (P29274 whole entry Y9F) above, with F9Y counted along it
Chain of A2AR (Homo sapiens, UniProt P29274, Y271N) (P29274 whole entry Y271N): as the sequence (P29274 whole entry Y9F) above, with F9Y, Y271N counted along it

| IC50 (A2BR [1]) [nM] | IC50 (A2BR [2]) [nM] | IC50 (A2BR [3]) [nM] | IC50 (A2AR [4]) [nM] | IC50 (A2AR [5]) [nM] | IC50 (A2AR [6]) [nM] | Structure (SMILES) |
| --- | --- | --- | --- | --- | --- | --- |
| 441 | 2630 | 1210 | – | – | – | Cc1c(C#N)cccc1-c1cc(-c2ccn(Cc3cccc(C(C)(C)O)n3)c(=O)c2)nc(N)n1 [2-118, 3-[2-amino-6-[1-[[6-(2-hydroxypropan-2-yl)pyridin-2-yl]methyl]-2-oxo-1,2-dihydropyridin-4-yl]pyrimidin-4-yl]-2-methylbenzonitrile] |
| 1.29 | 8.18 | 7.46 | 65.6 | 3.21 | 1.78 | Cc1c(C#N)cccc1-c1cc(-c2cn(Cc3cccc(C(C)(C)O)n3)nn2)nc(N)n1 [AB928, 3-[2-amino-6-[1-[[6-(2-hydroxypropan-2-yl)pyridin-2-yl]methyl]triazol-4-yl]pyrimidin-4-yl]-2-methylbenzonitrile] |
